Source: ChEMBL document CHEMBL1157124, “Synthesis and anticancer evaluation of alpha-lipoic acid derivatives” (Bioorg Med Chem Lett, 2010)

Legend:
DU-145 = assay: Cytotoxicity against human DU145 cells; format: functional, cell-based
CCRF S-180 [1] = assay: Antitumor activity against mouse S180 cells xenografted in ICR mouse assessed as reduction of tumor weight at 100 mg/kg, ig administered 2 days after tumor inoculation qd for 7 days; format: functional; settings: route intragastric
CCRF S-180 [2] = assay: animal or person; settings: Mus musculus, CCRF S-180, po, read-out: INH
Description: Antitumor activity against mouse S180 cells xenografted in ICR mouse assessed as inhibition of tumor weight at 100 mg/kg, ig administered 2 days after tumor inoculation qd for 7 days relative to control

NCI-H460 [3] = assay: Cytotoxicity against human NCI-H460 cells assessed as growth inhibition at 0.1 ug/ml after 24 hrs by MTT assay; format: functional; settings: NCI-H460, 24 h, read-out: GI
[4] = Cytotoxicity against human HO8910 cells assessed as growth inhibition at 100 ug/ml after 24 hrs by MTT assay; format: functional; settings: HO-8910, 24 h, read-out: GI
[5] = Cytotoxicity against human HO8910 cells assessed as growth inhibition at 1 ug/ml after 24 hrs by MTT assay; format: functional; settings: HO-8910, 24 h, read-out: GI
KB [6] = assay: Cytotoxicity against human KB cells assessed as growth inhibition at 100 ug/ml after 24 hrs by MTT assay; format: functional; settings: read-out: GI
KB [7] = assay: Cytotoxicity against human KB cells assessed as growth inhibition at 10 ug/ml after 24 hrs by MTT assay; format: functional; settings: read-out: GI
KB [8] = assay: Cytotoxicity against human KB cells assessed as growth inhibition at 1 ug/ml after 24 hrs by MTT assay; format: functional; settings: read-out: GI
KB [9] = assay: Cytotoxicity against human KB cells assessed as growth inhibition at 0.1 ug/ml after 24 hrs by MTT assay; format: functional; settings: read-out: GI
Bel-7402 [10] = assay: Cytotoxicity against human Bel7402 cells assessed as growth inhibition at 100 ug/ml after 24 hrs by MTT assay; format: functional; settings: Bel-7402, 24 h, read-out: GI
Bel-7402 [11] = assay: Cytotoxicity against human Bel7402 cells assessed as growth inhibition at 10 ug/ml after 24 hrs by MTT assay; format: functional; settings: Bel-7402, 24 h, read-out: GI
Bel-7402 [12] = assay: Cytotoxicity against human Bel7402 cells assessed as growth inhibition at 1 ug/ml after 24 hrs by MTT assay; format: functional; settings: Bel-7402, 24 h, read-out: GI
Bel-7402 [13] = assay: Cytotoxicity against human Bel7402 cells assessed as growth inhibition at 0.1 ug/ml after 24 hrs by MTT assay; format: functional; settings: Bel-7402, 24 h, read-out: GI
HT-29 = assay: Induction of apoptosis in human HT-29 cells; format: functional, cell-based
NCI-H460 [14] = assay: Cytotoxicity against human NCI-H460 cells assessed as growth inhibition at 100 ug/ml after 24 hrs by MTT assay; format: functional; settings: NCI-H460, 24 h, read-out: GI
NCI-H460 [15] = assay: Cytotoxicity against human NCI-H460 cells assessed as growth inhibition at 10 ug/ml after 24 hrs by MTT assay; format: functional; settings: NCI-H460, 24 h, read-out: GI
NCI-H460 [16] = assay: Cytotoxicity against human NCI-H460 cells assessed as growth inhibition at 1 ug/ml after 24 hrs by MTT assay; format: functional; settings: NCI-H460, 24 h, read-out: GI
CCRF S-180 [17] = assay: Antitumor activity against mouse S180 cells xenografted in ICR mouse assessed as reduction of tumor weight at 200 mg/kg, ig administered 2 days after tumor inoculation qd for 7 days; format: functional; settings: route intragastric
[18] = Cytotoxicity against human HO8910 cells assessed as growth inhibition at 0.1 ug/ml after 24 hrs by MTT assay; format: functional; settings: HO-8910, 24 h, read-out: GI
SMMC-7721 = assay: Induction of apoptosis in human SMMC7721 cells at 5 mM after 96 hrs; format: functional
FaDu = assay: Growth inhibition of human FADU cells at 10 uM; format: functional
SCC-9 = assay: Growth inhibition of human SCC9 cells at 10 uM; format: functional
SCC-25 = assay: Growth inhibition of human SCC25 cells at 10 uM; format: functional
[19] = Growth inhibition of human Detroit 562 cells at 10 uM; format: functional
[20] = Toxicity in rat; format: organism-based; settings: in vivo
[21] = Cytotoxicity against human HO8910 cells assessed as growth inhibition at 10 ug/ml after 24 hrs by MTT assay; format: functional; settings: HO-8910, 24 h, read-out: GI
PC-3 [22] = assay: Cytotoxicity against human PC3 cells assessed as growth inhibition at 100 ug/ml after 24 hrs by MTT assay; format: functional; settings: PC-3, 24 h, read-out: GI
PC-3 [23] = assay: Cytotoxicity against human PC3 cells assessed as growth inhibition at 10 ug/ml after 24 hrs by MTT assay; format: functional; settings: PC-3, 24 h, read-out: GI
PC-3 [24] = assay: Cytotoxicity against human PC3 cells assessed as growth inhibition at 1 ug/ml after 24 hrs by MTT assay; format: functional; settings: PC-3, 24 h, read-out: GI
PC-3 [25] = assay: Cytotoxicity against human PC3 cells assessed as growth inhibition at 0.1 ug/ml after 24 hrs by MTT assay; format: functional; settings: PC-3, 24 h, read-out: GI
CCRF S-180 [26] = assay: Antitumor activity against mouse S180 cells xenografted in ICR mouse assessed as inhibition of tumor weight at 200 mg/kg, ig administered 2 days after tumor inoculation qd for 7 days relative to control; format: functional; settings: CCRF S-180, po, route intragastric
CCRF S-180 [27] = assay: Cytotoxicity against mouse S180 cells assessed as growth inhibition at 100 ug/ml after 24 hrs by MTT assay; format: functional; settings: CCRF S-180, 24 h
CCRF S-180 [28] = assay: Cytotoxicity against mouse S180 cells assessed as growth inhibition at 10 ug/ml after 24 hrs by MTT assay; format: functional; settings: CCRF S-180, 24 h
CCRF S-180 [29] = assay: Cytotoxicity against mouse S180 cells assessed as growth inhibition at 1 ug/ml after 24 hrs by MTT assay; format: functional; settings: CCRF S-180, 24 h
CCRF S-180 [30] = assay: Cytotoxicity against mouse S180 cells assessed as growth inhibition at 0.1 ug/ml after 24 hrs by MTT assay; format: functional; settings: CCRF S-180, 24 h
Mus musculus [31] = assay: Acute toxicity in ICR mouse assessed as gross pathological changes at 1000 mg/kg, ig; format: organism-based; parameters: dose 1000 mg/kg, route intragastric; settings: in vivo, po
Mus musculus [32] = assay: Acute toxicity in ICR mouse assessed as mortality at 1000 mg/kg, ig; format: organism-based; parameters: dose 1000 mg/kg, route intragastric; settings: in vivo, po
[33] = Acute toxicity in ICR mouse; format: organism-based; settings: in vivo
Mus musculus [34] = assay: Acute toxicity in ICR mouse assessed as mortality at 100 mg/kg, ip qd for 4 days; format: organism-based; parameters: dose 100 mg/kg, route intraperitoneal; settings: in vivo, 96 h
Mus musculus [35] = assay: Acute toxicity in ICR mouse assessed as change in body weight at 100 mg/kg, ip qd for 4 days; format: organism-based; parameters: dose 100 mg/kg, route intraperitoneal; settings: in vivo, 96 h
Mus musculus [36] = assay: Acute toxicity in ICR mouse assessed as mortality at 200 mg/kg, ip qd for 9 days measured on day 11; format: organism-based; parameters: dose 200 mg/kg, route intraperitoneal; settings: in vivo, 216 h

| Compound | IC50 (DU-145) [µM] | inhibition of growth at 0.1 µg/mL (NCI-H460 [3]) [%] | inhibition of growth at 100 µg/mL [4] [%] | inhibition of growth at 1 µg/mL [5] [%] | inhibition of growth at 100 µg/mL (KB [6]) [%] | inhibition of growth at 10 µg/mL (KB [7]) [%] | inhibition of growth at 1 µg/mL (KB [8]) [%] | inhibition of growth at 0.1 µg/mL (KB [9]) [%] | inhibition of growth at 100 µg/mL (Bel-7402 [10]) [%] | inhibition of growth at 10 µg/mL (Bel-7402 [11]) [%] | inhibition of growth at 1 µg/mL (Bel-7402 [12]) [%] | inhibition of growth at 100 µg/mL (NCI-H460 [14]) [%] | inhibition of growth at 10 µg/mL (NCI-H460 [15]) [%] | inhibition of growth at 1 µg/mL (NCI-H460 [16]) [%] | also measured |
| --- | --- | --- | --- | --- | --- | --- | --- | --- | --- | --- | --- | --- | --- | --- | --- |
| CS/C=C\C(=O)SCCC(CCCCC(=O)OCCN(C)C)SC(=O)/C=C\SC (stereo not drawn) | 50 |  |  |  |  |  |  |  |  |  |  |  |  |  |  |
| O=P1(N(CCCl)CCCl)NCCCO1 (stereo not drawn) [CYCLOPHOSPHAMIDE ANHYDROUS] |  |  |  |  |  |  |  |  |  |  |  |  |  |  | Activity (CCRF S-180 [1]): 0.39 g; inhibition in vivo at 100 mg/kg (CCRF S-180 [2]): 74.5% |
| CS/C=C/C(=O)SCCC(CCCCC(=O)OCCN(C)C)SC(=O)/C=C/SC (stereo not drawn) | 45 |  |  |  |  |  |  |  |  |  |  |  |  |  |  |
| O=C(O)CCCC[C@@H](S)CCS [DIHYDROLIPOIC ACID] |  | 9.25 | 1.17 | 3.93 | 16.3 | 3.38 | 8.79 | 12 | 0.59 | 5.59 | 6.98 | 7.84 | 5.02 | 12.2 | inhibition of growth at 0.1 µg/mL (Bel-7402 [13]): 10.4%; EC50 (HT-29): 250 µM |
| O=C(CCCCCCC(=O)Nc1ccccc1)NO [VORINOSTAT] |  |  |  |  |  |  |  |  |  |  |  |  |  |  | Activity (CCRF S-180 [1]): 1.61 g; Activity (CCRF S-180 [17]): 1.53 g |
| O=C(O)CCCCC1CCSS1 (stereo not drawn) [LIPOIC ACID, ALPHA] |  | 8.71 | 5.11 | 1.05 | 11 | 7.18 | 8.6 | 0.14 | 8.17 | 4.77 | 2.52 | 5.72 | 2.39 | 4.65 | inhibition of growth at 0.1 µg/mL [18]: 3.39%; Activity (SMMC-7721): 65%; inhibition at 10 µM (FaDu): 50%; inhibition at 10 µM (SCC-9): 50%; inhibition at 10 µM (SCC-25): 50%; inhibition at 10 µM [19]: 50%; EC50 (HT-29): 250 µM; LD50 [20]: 2000 mg/kg |
| COC(=O)CCCCC(CCSC(=O)CCCSC)SC(=O)CCCSC (stereo not drawn) | 400 |  |  |  |  |  |  |  |  |  |  |  |  |  |  |
| O=C(CCCCC1CCSS1)Nc1ccccc1 (stereo not drawn) |  | 9.48 | 57.8 | 10.9 | 65.3 | 10.2 | 6.06 | 10.9 | 60.6 | 2.27 | 3.28 | 47.6 | 0.75 | 5.86 | inhibition of growth at 10 µg/mL [21]: 4.71%; inhibition of growth at 0.1 µg/mL [18]: 11.2%; inhibition of growth at 0.1 µg/mL (Bel-7402 [13]): 3.22%; inhibition of growth at 100 µg/mL (PC-3 [22]): 59.2%; inhibition of growth at 10 µg/mL (PC-3 [23]): 13%; inhibition of growth at 1 µg/mL (PC-3 [24]): 13.6%; inhibition of growth at 0.1 µg/mL (PC-3 [25]): 5.5% |
| CSCCCC(=O)SCCC(CCCCC(=O)OCCN(C)C)SC(=O)CCCSC (stereo not drawn) | 240 |  |  |  |  |  |  |  |  |  |  |  |  |  |  |
| O=C(CCCCC1CCSS1)Nc1ccc(OC(F)(F)F)cc1 (stereo not drawn) |  | 7.05 | 84.5 | 10 | 90.1 | 8.49 | 1.54 | 1.97 | 78.4 | 1.24 | 0.29 | 83 | 20.3 | 12.2 | inhibition of growth at 10 µg/mL [21]: 8.57%; inhibition of growth at 0.1 µg/mL [18]: 5.53%; inhibition of growth at 100 µg/mL (PC-3 [22]): 88.5%; inhibition of growth at 10 µg/mL (PC-3 [23]): 38.2%; inhibition of growth at 1 µg/mL (PC-3 [24]): 10.8%; inhibition of growth at 0.1 µg/mL (PC-3 [25]): 6.69% |
| O=C(CCCCC1CCSS1)Nc1ccc(Cl)cn1 (stereo not drawn) |  | 3.93 | 68.5 | 2.1 | 74.5 | 28.6 | 0.76 |  | 48.5 | 16.1 | 7.44 | 58.5 | 33.7 | 6.26 | inhibition of growth at 10 µg/mL [21]: 27.5%; inhibition of growth at 100 µg/mL (PC-3 [22]): 42.3%; inhibition of growth at 10 µg/mL (PC-3 [23]): 17.1%; inhibition of growth at 1 µg/mL (PC-3 [24]): 2%; inhibition of growth at 0.1 µg/mL (PC-3 [25]): 2.22%; Activity (CCRF S-180 [1]): 1.53 g; Activity (CCRF S-180 [17]): 1.15 g; inhibition in vivo at 200 mg/kg (CCRF S-180 [26]): 24.7%; inhibition at 100 µg/mL (CCRF S-180 [27]): 74.3%; inhibition at 10 µg/mL (CCRF S-180 [28]): 24.5%; inhibition at 1 µg/mL (CCRF S-180 [29]): 13%; inhibition at 0.1 µg/mL (CCRF S-180 [30]): 5.92%; Activity (Mus musculus [31]): Non-toxic; Activity (Mus musculus [32]): Non-toxic; LD50 [33]: 1000 mg/kg; Activity (Mus musculus [34]): Non-toxic; Activity (Mus musculus [35]): 10%; Activity (Mus musculus [36]): Toxic |
